Consider 30 compounds from patent US11401246B2, “Triazole glycolate oxidase inhibitors” (CANTERO THERAPEUTICS, INC., priority 2018, dated 2022).

The assay has as its target T1, human glycolate oxidase (hGO) (Homo sapiens, UniProt Q9UJM8).
T1 construct: His-tag (6 histidines, pET-15b) (N); made in house; host or cells: E. coli BL21 (DE3)
T1 sequence (Q9UJM8 1-370): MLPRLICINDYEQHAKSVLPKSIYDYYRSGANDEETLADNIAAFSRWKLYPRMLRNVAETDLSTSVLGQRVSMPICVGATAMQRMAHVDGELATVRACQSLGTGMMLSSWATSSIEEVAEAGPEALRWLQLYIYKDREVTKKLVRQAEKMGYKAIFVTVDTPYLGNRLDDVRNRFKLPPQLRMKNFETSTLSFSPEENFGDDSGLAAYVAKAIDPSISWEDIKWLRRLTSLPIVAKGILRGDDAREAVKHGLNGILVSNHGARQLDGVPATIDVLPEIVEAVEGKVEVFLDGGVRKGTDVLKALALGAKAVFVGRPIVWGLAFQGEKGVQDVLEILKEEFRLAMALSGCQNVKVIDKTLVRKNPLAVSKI
The assay can be described thus: In vitro inhibition of human glycolate oxidase (enzymatic assay, HRP-coupled Trinder reaction).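 Further: values are IC50 potency bins despite the % Inhibition label.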 Format: biochemical. Conditions: recombinant hGO, 40 mM glycolic acid, pH 7, read at 515 nm, 1 minute after initiation of Trinder reaction; read-out: % Inhibition. The source says: The catalytic reactions used for assaying glycolate oxidase activity in the presence of compounds according to the present disclosure are outlined in FIG. 2. Glycolate oxidase (GO)-catalyzed conversion of glycolate to glyoxylate (top reaction), with the concomitant reduction of the cofactor flavin mononucleotide (FMN), uses molecular oxygen (O2) for recovering its oxidative state, releasing hydrogen peroxide (H2O2). The Trinder reaction (bottom reaction), in which horseradish peroxidase (HRP) uses hydrogen peroxide, 4-aminoantipyrine and a phenol derivative (sulphonated DCIP) to generate a quinoneimine dye that is spectrophotometrically measured.
Human glycolate oxidase (hGO) expression. BL21 (DE3) E. coli transformed with recombinant pET-15b expression vector with the N-terminal His-tag human Hao1 cDNA was grown in LB medium in the presence of 0.1 mg/ml ampicillin. For purification of recombinant human glycolate oxidase (hGO) expressed in BL21 E. coli, bacteria pellets were thawed and re-suspended in 2 ml lysis buffer (50 mM NaH2PO4, 300 mM NaCl, 10 mM imidazole, 50 μM FMN, pH 7.5), and then treated for 30 minutes with 1 mM PMSF for protease inhibition, 0.1% Triton X-100 and 0.2 mg/ml lysozyme to break cellular membranes. After sonication, cells were centrifuged and the supernatant containing the total cellular extract (pre-column fraction) was loaded into a Ni-NTA agarose column and incubated for 30 minutes at 4° C. to allow binding of the 6 histidine tail of recombinant GO protein to the nickel ions. The column was washed with two bed volumes of lysis buffer with 20 mM imidazole to eliminate unbound proteins (wash fraction). GO was eluted using the same buffer with 300 mM imidazole. Fraction containing purified GO was dialyzed against 300 ml of dialysis buffer (50 mM NaH2PO4, 300 mM NaCl, pH 7.5) at 4° C. in agitation overnight, and then kept at 4° C. in darkness. Protein were quantified by the bicinchoninic acid (BCA) assay.
Enzymatic assays. Enzymatic activity of hGO was determined in the presence of glycolate as substrate (40 mM glycolic acid) and phosphate buffer (50 mM KPO4, 0.1 mM EDTA, pH 7). The production of glyoxylate was indirectly measured by the quantification of hydrogen peroxide formed during the first oxidation reaction. […] Enzymatic activity was calculated at 1 minute after initiation of the Trinder reaction.
For the compound `O=C1CCC(c2ccc(Oc3[nH]nnc3C(=O)O)cc2)CC1` [Example 77, 5-(4-(4-oxocyclohexyl)phenoxy)-1H-1,2,3-triazole-4-carboxylic Acid], the IC50 is 100 to 200 nM.

As to `Cc1ccc(-c2ccc(Oc3[nH]nnc3C(=O)O)cc2C)c(F)n1` [Example 78, 5-(4-(2-fluoro-6-methylpyridin-3-yl)-3-methylphenoxy)-1H-1,2,3-triazole-4-carboxylic Acid], the IC50 is below 100 nM.

Regarding `Cc1ccc(-c2ccc(Oc3[nH]nnc3C(=O)O)cc2)c(F)n1` [Example 79, 5-(4-(2-fluoro-6-methylpyridin-3-yl)phenoxy)-1H-1,2,3-triazole-4-carboxylic Acid], the IC50 was below 100 nM.

As to `Cc1cncc(-c2ccc(Oc3[nH]nnc3C(=O)O)cc2)c1` [Example 80, 5-(4-(5-methylpyridin-3-yl)phenoxy)-1H-1,2,3-triazole-4-carboxylic Acid], the IC50 was below 100 nM.

As for `Cc1cc(-c2ccc(Oc3[nH]nnc3C(=O)O)cc2)ccn1` [Example 81, 5-(4-(2-methylpyridin-4-yl)phenoxy)-1H-1,2,3-triazole-4-carboxylic Acid], the IC50 was below 100 nM.

In the case of `Cc1cc(-c2ccc(Oc3[nH]nnc3C(=O)O)cc2)cnc1F` [Example 82, 5-(4-(6-fluoro-5-methylpyridin-3-yl)phenoxy)-1H-1,2,3-triazole-4-carboxylic Acid], the IC50 was below 100 nM.

On to `O=C(O)c1nn[nH]c1Oc1ccc(-c2ccnc3ccccc23)cc1` [Example 83, 5-(4-(quinolin-4-yl)phenoxy)-1H-1,2,3-triazole-4-carboxylic Acid], for which the IC50 was below 100 nM.

As to `Cc1ccc(-c2ccc(Oc3[nH]nnc3C(=O)O)cc2)cn1` [Example 84, 5-(4-(6-methylpyridin-3-yl)phenoxy)-1H-1,2,3-triazole-4-carboxylic Acid], the IC50 lay in the range of 100 to 200 nM.

In the case of `Cc1cc(Oc2[nH]nnc2C(=O)O)ccc1-c1ccc(F)nc1C` [Example 85, 5-(4-(6-fluoro-2-methylpyridin-3-yl)-3-methylphenoxy)-1H-1,2,3-triazole-4-carboxylic Acid], the IC50 was 100 to 200 nM.

Take `Cc1cc(Oc2[nH]nnc2C(=O)O)ccc1-c1cnc(F)c(C)c1` [Example 86, 5-(4-(6-fluoro-5-methylpyridin-3-yl)-3-methylphenoxy)-1H-1,2,3-triazole-4-carboxylic Acid]: the IC50 lay in the range of 100 to 200 nM.

Regarding `O=C(O)c1[nH]nnc1Oc1ccc(C2CCC(F)(F)CC2)cc1` [Example 87, 5-(4-(4,4-difluorocyclohexyl)phenoxy)-1H-1,2,3-triazole-4-carboxylic Acid], the IC50 was 100 to 200 nM.

On to `COc1cc(Oc2[nH]nnc2C(=O)O)ccc1Br` [Example 89, 5-(4-bromo-3-methoxyphenoxy)-1H-1,2,3-triazole-4-carboxylic Acid], for which the IC50 was below 100 nM.

On to `COc1ccc(-c2ccc(Oc3[nH]nnc3C(=O)O)cc2OC)cn1` [Example 90, 5-(3-methoxy-4-(6-methoxypyridin-3-yl)phenoxy)-1H-1,2,3-triazole-4-carboxylic Acid], for which the IC50 was below 100 nM.

Take `COc1ccc(-c2ccc(Oc3[nH]nnc3C(=O)O)cc2OC)c(OC)n1` [Example 91, 5-(4-(2,6-dimethoxypyridin-3-yl)-3-methoxyphenoxy)-1H-1,2,3-triazole-4-carboxylic Acid]: the IC50 was below 100 nM.

On to `O=C(O)c1nn[nH]c1Oc1ccc(-c2ccnc(F)c2)cc1` [Example 92, 5-(4-(2-fluoropyridin-4-yl)phenoxy)-1H-1,2,3-triazole-4-carboxylic Acid], for which the IC50 is below 100 nM.

In the case of `O=C(O)c1nn[nH]c1Oc1ccc(-c2cccnc2Cl)cc1` [Example 93, 5-(4-(2-chloropyridin-3-yl)phenoxy)-1H-1,2,3-triazole-4-carboxylic Acid], the IC50 is below 100 nM.

For the compound `O=C(O)c1nn[nH]c1Oc1ccc(-c2cccc3ccccc23)cc1` [Example 94, 5-(4-(1-naphthyl)phenoxy)-1H-1,2,3-triazole-4-carboxylic Acid], the IC50 is below 100 nM.

`O=C(O)c1nn[nH]c1Oc1ccc(Br)c(C(F)(F)F)c1` [Example 95, 5-(4-bromo-3-(trifluoromethyl)phenoxy)-1H-1,2,3-triazole-4-carboxylic Acid]: the IC50 was above 200 nM.

Turning to `O=C(O)c1nn[nH]c1Oc1ccc(-c2cncc3ccccc23)cc1` [Example 96, 5-(4-(isoquinolin-4-yl)phenoxy)-1H-1,2,3-triazole-4-carboxylic Acid], the IC50 lay within 100 to 200 nM.

In the case of `O=C(O)c1nn[nH]c1Oc1ccc(C2CCSCC2)cc1` [Example 97, 5-(4-(tetrahydro-2H-thiopyran-4-yl)phenoxy)-1H-1,2,3-triazole-4-carboxylic Acid], the IC50 lay within 100 to 200 nM.

On to `O=C(O)c1nn[nH]c1Oc1ccc(-c2cccnc2F)cc1F` [Example 98, 5-(2-fluoro-4-(2-fluoropyridin-3-yl)phenoxy)-1H-1,2,3-triazole-4-carboxylic Acid], for which the IC50 was below 100 nM.

Take `O=C(O)c1nn[nH]c1Oc1ccc(-c2cc(F)cnc2Cl)cc1` [Example 99, 5-(4-(2-chloro-5-fluoropyridin-3-yl)phenoxy)-1H-1,2,3-triazole-4-carboxylic Acid]: the IC50 is below 100 nM.

In the case of `COc1ccc(-c2ccc(Oc3[nH]nnc3C(=O)O)cc2)cn1` [Example 100, 5-(4-(6-methoxypyridin-3-yl)phenoxy)-1H-1,2,3-triazole-4-carboxylic Acid], the IC50 is below 100 nM.

Take `COc1ccc(-c2ccc(Oc3[nH]nnc3C(=O)O)cc2)c(OC)n1` [Example 101, 5-(4-(2,6-dimethoxypyridin-3-yl)phenoxy)-1H-1,2,3-triazole-4-carboxylic Acid]: the IC50 was below 100 nM.

For the compound `CS(=O)(=O)Nc1ccc(-c2ccc(Oc3[nH]nnc3C(=O)O)cc2)cc1` [Example 102, 5-((4′-(methylsulfonamido)-[1,1′-biphenyl]-4-yl)oxy)-1H-1,2,3-triazole-4-carboxylic Acid], the IC50 was below 100 nM.

In the case of `O=C(O)c1nn[nH]c1Oc1ccc(-c2ccc(C(F)(F)F)cc2)cc1F` [Example 104, 5-((3-fluoro-4′-(trifluoromethyl)-[1,1′-biphenyl]-4-yl)oxy)-1H-1,2,3-triazole-4-carboxylic Acid], the IC50 lay within 100 to 200 nM.

In the case of `CS(=O)(=O)c1ccc(-c2ccc(Oc3[nH]nnc3C(=O)O)c(F)c2)cc1` [Example 105, 5-((3-fluoro-4′-(methylsulfonyl)-[1,1′-biphenyl]-4-yl)oxy)-1H-1,2,3-triazole-4-carboxylic Acid], the IC50 lay in the range of 100 to 200 nM.

Turning to `CC(C)(C)c1ccc(-c2ccc(Oc3[nH]nnc3C(=O)O)c(F)c2)cc1` [Example 106, 5-((4′-(tert-butyl)-3-fluoro-[1,1′-biphenyl]-4-yl)oxy)-1H-1,2,3-triazole-4-carboxylic Acid], the IC50 was 100 to 200 nM.

As to `CC(C)c1ccc(-c2ccc(Oc3[nH]nnc3C(=O)O)c(F)c2)cc1` [Example 107, 5-((3-fluoro-4′-isopropyl-[1,1′-biphenyl]-4-yl)oxy)-1H-1,2,3-triazole-4-carboxylic Acid], the IC50 was 100 to 200 nM.

For `CC(C)Cc1ccc(-c2ccc(Oc3[nH]nnc3C(=O)O)cc2)cc1` [Example 108, 5-((4′-isobutyl-[1,1′-biphenyl]-4-yl)oxy)-1H-1,2,3-triazole-4-carboxylic Acid], the IC50 is above 200 nM.
